Values of other authors as cited in patent US9078464B2 (EDIO HEALTHCARE AB, priority 2008, dated 2015).

Settings: in vivo

## CC(C)CCC[C@@H](C)[C@H]1CC[C@H]2[C@@H]3CC=C4C[C@@H](O)CC[C@]4(C)[C@H]3CC[C@]12C [cholesterol]
  absorption from the intestine: around 60%
